According to patent US12559863B2, “Macrocyclic modulators of disease associated protein misfolding and aggregation” (RESQ BIOTECH, priority 2017, dated 2026):
Where a SMILES comes first, the peptide text is derived from it.

Legend:
Aβ42 = molecular target: T1, Aβ42 (Homo sapiens, UniProt P05067); assay: Transmission electron microscopy of Aβ42; type: biochemical; details: 50 μM Aβ42 with 100 μM peptide, 30-d aged
T1 construct: one of the secondary products yields a 42-amino-acid-long peptide (Aβ42); purchased Eurogentec, Belgium; host or cells: chemical synthesis
Description: For TEM analysis, the 30-d aged 50 μM CD solutions of Aβ42 (with 100 μM of the selected peptides or without) was mixed well by pipetting. 2 μL of this solution were placed in a carbon-coated film on 200-mesh copper grids (Agar Scientific, UK) for 5 min. After adsorption, grids were washed in deionized water and negatively stained by applying a 2-μl drop of freshly prepared 1% (w/v) uranyl acetate (Sigma-Aldrich, USA) in Milli-Q water for 5 min. Excess fluid was blotted off, and grids were washed in deionized water and dried in air. Images were recorded using a FEI CM20 electron microscope (FEI, USA) with a Gatan GIF200 imaging filter (Gatan, USA), equipped with a Peltier-cooled slow-scan CCD camera.

[1] = test system: Aβ-exposed neuronal cells; assay: Phase-contrast microscopy of Aβ-exposed neuronal cells; type: cell-based, mouse; details: pre-aggregated Aβ
Description: Solutions of synthetic Aβ40 or Aβ42 (10 μM) in PBS, preincubated at 37° C. (3 d for Aβ40 solutions and 1 d for Aβ42 solutions) in the presence or absence of synthetic cyclic peptides (1:1 and 2:1 ratio of peptides:Aβ), were diluted with fresh medium and transferred into wells at a 1 μM final Aβ concentration. Cell viability was determined using the MTT assay. MTT (3-[4,5-dimethylthiazol-2-yl]-2,5-diphenyl tetrazolium bromide) was purchased from Applichem (Germany). After 24 h of exposure to Aβ solutions, 100 μL of a 0.5 mg/mL stock solution of MTT in Neurobasal-A was added to each well of primary hippocampal neurons followed by a 3 h incubation at 37° C., while 100 μL of a 1 mg/mL stock solution of MTT in DMEM complete medium was added to each well of U87MG cells followed by a 4 h incubation at 37° C. The medium was then removed and the cells were diluted in DMSO. The relative formazan concentration was measured by determination of the absorbance at 540 nm using a plate reader (Tecan, Austria). Results were expressed as the percentage of MTT reduction, assuming that the absorbance of control (untreated) cells was 100%, and represent the mean of three independent experiments with six replicate wells for each condition. Induced cell death was also qualitatively examined by phase-contrast microscopy (Carl Zeiss, Axiovert 25 CFL, Germany) using the above solutions. […]

[2] = test system: C. elegans strain CL2006 (human Aβ42 in body wall muscle cells); assay: Paralysis assay in C. elegans CL2006 fed peptide-producing E. coli OP50; type: in vivo, Caenorhabditis elegans; details: fed throughout lifespan with E. coli OP50 producing the peptide
Excerpt: To evaluate the protective effects of the selected cyclic peptides against Aβ aggregation and toxicity in vivo, the inventors employed two established models of AD in the nematode worm Caenorhabditis elegans. The conservation of genetic and metabolic pathways between C. elegans and mammals, in combination with its completely characterized nervous and muscular system, its easy visualization and simple manipulation, has nominated C. elegans as an excellent model for neurodegenerative diseases including AD, while chemical screening against Aβ-induced toxicity in C. elegans is increasingly used in AD drug discovery. The inventors performed initially a paralysis assay in CL2006, a strain where human Aβ42 is constitutively expressed in the body wall muscle cells of the animals and Aβ aggregate formation is accompanied by adult-onset paralysis. […] To evaluate the state of Aβ aggregation in vivo, we utilized the strain CL2331, which expresses an Aβ3-42-GFP fusion in its body wall muscle cells upon temperature up-shift.

[3] = test system: C. elegans strain CL4176 (human Aβ42, heat-inducible); assay: Paralysis assay in C. elegans CL4176; type: in vivo, Caenorhabditis elegans; details: synthetic AβC5-34 10 μM, AβC5-116 5 μM; temperature up-shift
Description: (§1) We followed standard procedures for C. elegans strains maintenance at 16° C. The following strains were used: CL2179: dvIs179 [myo-3p::GFP::3′UTR(long)+rol-6(su1006)] (available on the world wide web at: cgc.cbs.umn.edu/strain.php?id=26134); CL2331: dvIs37 [myo-3p::GFP::Aβ(3-42)+rol-6(su1006)] (available on the world wide web at: cgc.cbs.umn.edu/strain.php?id=26135); CL4176: smg-1(cc546) I; dvIs27 [myo-3::Aβ(1-42)-let 3′UTR(pAF29); pRF4 (rol-6(su1006)] (available on the world wide web at: cgc.cbs.umn.edu/strain.php?id=7663).
For treatments with synthetic cyclic peptides, nematodes were exposed to the indicated AβC5-34 and AβC5-116 concentrations per NGM plate. Stock solutions of the two chemically synthesized pure peptides were obtained after dissolution in DMSO and stored at −20° C. The appropriate amount of compound or DMSO (control cultures) was added onto an E. coli OP50 bacterial lawn. […] Treatment and control plates were handled, scored and assayed in parallel.
Synchronized CL4176 animals (150-300 animals per condition) were transferred to NGM plates containing synthetic AβC5-34, AβC5-116 or 0.26% DMSO at 16° C. for 48 h before transgene induction via temperature up-shift to 25° C. […] Treatment and control plates were handled, scored and assayed in parallel. […] Nematodes were scored as paralyzed upon failure to move their half end-body upon prodding. […]

[4] = test system: C. elegans strain CL2331 (Aβ3-42-GFP); assay: Confocal microscopy of Aβ3-42-GFP deposits in C. elegans CL2331; type: in vivo, Caenorhabditis elegans; details: 10 μM AβC5-34 or 5 μM AβC5-116
Description: as §1
For Aβ3-42 deposit measurements, synchronized (at the L4 larval stage) CL2331 and CL2179 (control strain) animals exposed to solvent (0.26% DMSO), 10 μM AβC5-34 or 5 μM AβC5-116 and grown at 20° C. (to induce aggregation) until day 2 of adulthood were collected. Animals were mounted onto 2% agarose pads on glass slides, anesthetized with 10 mM levamisole and observed at RT using a Leica TCS SPE confocal laser scanning microscope (Leica Lasertechnik GmbH, Germany). The LAS AF software was used for image acquisition. At least twenty animals/condition in three independent experiments were processed. Images of whole worms and focused images in the posterior area of nematodes were acquired with 10×0.45 and 20×0.70 numerical aperture, respectively.

T1 sequence (P05067 672-713 limits assumed): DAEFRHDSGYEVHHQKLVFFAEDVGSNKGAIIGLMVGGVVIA

Row | SMILES | Aβ42 fibrils by TEM (Aβ42) | morphology of Aβ-exposed neuronal cells [1] | appearance of paralysis phenotype, CL2006 [2] | appearance of paralysis phenotype, CL4176 [3] | Aβ deposits, CL2331 [4]
1 | C[C@@H]1NC(=O)[C@H](CO)NC(=O)[C@H]([C@@H](C)O)NC(=O)[C@@H]2CCCN2C(=O)[C@H](CO)NC1=O [AβC5-34, cyclo-SASPT] (cyclo(ASPTS)) | notably fewer, shorter and ill-developed | marked recovery of the Aβ-induced alterations | significant delay | significant delay | significant reduction of Aβ deposits
2 | C[C@@H]1NC(=O)[C@H]([C@@H](C)O)NC(=O)[C@H](CCCNC(=N)N)NC(=O)[C@H](CC(=O)O)NC(=O)[C@H](Cc2ccccc2)NC1=O [AβC5-116, cyclo-TAFDR] (cyclo(AFDRT)) | notably fewer, shorter and ill-developed | marked recovery of the Aβ-induced alterations | significant delay | significant delay | significant reduction of Aβ deposits
